Reference: patent US10639276B2, “Liposomes with ginsenoside as membrane material and preparations and use thereof” (SHANGHAI GINPOSOME PHARMATECH CO., LTD., priority 2015, dated 2020)

Key:
Test in all cases: Cell survival rate, cell experiment in vitro (MTT)
[1] = tested on: paclitaxel-resistant human pancreatic cancer cell line (BxPC-3/T); format: cell-based
Description: The new recovery BxPC-3 cells were cultured for two generations or three generations under conventional conditions to make the cells grow stably.

[2] = tested on: human ovarian cancer cell line (A2780)
Description: (§1) Assay of cell experiment in vitro: tumor cells at logarithmic growth phase were collected, resuspended in a DMEM complete culture-medium (containing 10% fetal bovine serum, 100 U/ml penicillin, 100 μg/ml streptomycin) and a final concentration was 4×10^4 cells/ml. In a 96-well cell culture plate, 200 μl above cell suspension was added into each well (8×10^3 cells/well), and cultured for 48 h in a cell incubator at 37° C. filled with 5% CO2. The DMEM complete culture-medium was respectively replaced with 200 μL antitumor drug with different concentrations. The final concentrations of the drugs were set no less than six groups. The DMEM complete culture-medium was as the negative control group. Each concentration was set 4 wells and the experiment was repeated for 3 times. 20 μl 5 mg/mL MTT solution was added into each well after the cells were cultured for 72 h in a cell incubator at 37° C. filled with 5% CO2. The supernatant was discarded after it was further cultured for 4 h in a cell incubator. 150 μl DMSO was added into each well, shaked for 10 min. An OD was determined at 490 nm by a continuous spectrum multifunctional microplate reader (Tecan infinite M 200 TECAN, Switzerland). The cell survival rate was calculated by the following formula: (the cell survival rate (%)=ODdrug/ODcontrol×100%). Cell survival rate (%)=OD490(sample)/OD490(control)×100%;
(§2) Wherein OD490(sample) is the OD of the experimental group, OD490(control) is the OD of the blank control group.

[3] = tested on: paclitaxel-resistant human ovarian cancer cell line (A2780/T)
Description: as §1, §2

## CC(=O)O[C@H]1C(=O)[C@@]2(C)[C@H]([C@H](OC(=O)c3ccccc3)[C@]3(O)C[C@H](OC(=O)[C@H](O)[C@@H](NC(=O)c4ccccc4)c4ccccc4)C(C)=C1C3(C)C)[C@]1(OC(C)=O)CO[C@@H]1C[C@@H]2O [Taxol, paclitaxel]
[1]; C (μM): Taxol + Rg5 1.5625 + 9.375, Taxol 1.5625, Blank Rg5 9.375
  Cell Viability: 0.85
[1]; C (μM): Taxol + Rg5 12.5 + 75, Taxol 12.5, Blank Rg5 75
  Cell Viability: 0.639
[1]; C (μM): Taxol + Rg5 25 + 150, Taxol 25, Blank Rg5 150
  Cell Viability: 0.454
[1]; C (μM): Taxol + Rg5 50 + 300, Taxol 50, Blank Rg5 300
  Cell Viability: 0.272
[1]; C (μM): Taxol + Rg5 200 + 1200, Taxol 200, Blank Rg5 1200
  Cell Viability: 0.15
[1]; C (μM): Taxol + Rg5 400 + 2400, Taxol 400, Blank Rg5 2400
  Cell Viability: 0.134
[2]; C (μM): Taxol + Rg5 0.001953 + 0.011719, Taxol 0.001953, Blank Rg5 0.011719, Abraxane 0.001953
  Cell Viability: 0.866
[2]; C (μM): Taxol + Rg5 0.007813 + 0.046875, Taxol 0.007813, Blank Rg5 0.046875, Abraxane 0.007813
  Cell Viability: 0.818
[2]; C (μM): Taxol + Rg5 0.015625 + 0.09375, Taxol 0.015625, Blank Rg5 0.09375, Abraxane 0.015625
  Cell Viability: 0.673
[2]; C (μM): Taxol + Rg5 0.03125 + 0.1875, Taxol 0.03125, Blank Rg5 0.1875, Abraxane 0.03125
  Cell Viability: 0.443
[2]; C (μM): Taxol + Rg5 0.25 + 1.5, Taxol 0.25, Blank Rg5 1.5, Abraxane 0.25
  Cell Viability: 0.204
[2]; C (μM): Taxol + Rg5 0.5 + 3, Taxol 0.5, Blank Rg5 3, Abraxane 0.5
  Cell Viability: 0.185
[2]; C (μM): Taxol + Rg5 1 + 6, Taxol 1, Blank Rg5 6, Abraxane 1
  Cell Viability: 0.133
[3]; C (μM): Taxol + Rg5 1.5625 + 9.375, Taxol 1.5625, Blank Rg5 9.375, Abraxane 1.5625
  Cell Viability: 0.856
[3]; C (μM): Taxol + Rg5 6.25 + 37.5, Taxol 6.25, Blank Rg5 37.5, Abraxane 6.25
  Cell Viability: 0.654
[3]; C (μM): Taxol + Rg5 12.5 + 75, Taxol 12.5, Blank Rg5 75, Abraxane 12.5
  Cell Viability: 0.393
[3]; C (μM): Taxol + Rg5 400 + 2400, Taxol 400, Blank Rg5 2400, Abraxane 400
  Cell Viability: 0.139
